Laboratory results as given in US20080194585A1, “Fungicidal Pyrazine Derivatives” (priority 2005, published 2008).
Read-outs that look alike come from different tables or passages of the source.

Assays:
[1] = tested on: Puccinia recondita f. sp. tritici; test: Test K: wheat leaf rust, preventive spray on wheat seedlings; conditions: for pest or weed control at 40 ppm: Puccinia recondita, in Triticum aestivum, 192 h, read-out: Test K disease control rating; for Test K disease control rating: 200 ppm, 100 = 100% disease control, 0 = no control
[2] = tested on: Pythium aphanidermatum; test: Test A: bluegrass pythium blight, preventive spray on bluegrass seedlings; conditions: for Test A disease control rating: 200 ppm, 100 = 100% disease control, 0 = no control
[3] = tested on: fusarium graminearium; test: Test I: wheat head scab, preventive spray on wheat seedlings; conditions: for Test I disease control rating: 200 ppm
Experimental: (the causal agent of wheat head scab) and incubated in a saturated atmosphere at 20° C. for 72 h, and then moved to a growth chamber at 22° C. for 5 days, after which disease ratings were made.

[4] = tested on: Septoria tritici; test: Test J: wheat leaf blotch, preventive spray on wheat seedlings; type: in vivo; conditions: for pest or weed control at 40 ppm: Zymoseptoria tritici, 528 h, read-out: Test J disease control rating; for Test J disease control rating: 200 ppm
Source text: A dash (-) indicates no test results.

[5] = tested on: Colletotrichum orbiculare; test: Test B: cucumber Colletotrichum anthracnose, preventive spray on cucumber seedlings; conditions: for pest or weed control at 40 ppm: Colletotrichum orbiculare, in Cucumis sativus, 144 h; for Test B disease control rating: 200 ppm
[6] = tested on: Rhizoctonia oryzae; test: Test G: turf brown patch, preventive spray on creeping bent grass seedlings; conditions: for pest or weed control at 40 ppm: Waitea circinata, in Agrostis stolonifera, topical, 144 h; for Test G disease control rating: 200 ppm
Experimental: (the causal agent of turf brown patch) and incubated in a saturated atmosphere at 27° C. for 24 h, and then moved to a growth chamber at 27° C. for 5 days, after which disease ratings were made.

[7] = tested on: Phytophthora infestans; test: whole plant or invertebrate; type: in vivo; conditions: for Test F disease control rating: 200 ppm, 100 = 100% disease control, 0 = no control
[8] = tested on: Erysiphe graminis f. sp. tritici; test: Test L: wheat powdery mildew, preventive spray on wheat seedlings; conditions: for pest or weed control at 40 ppm: Blumeria graminis, in Triticum aestivum, 168 h; for Test L disease control rating: 200 ppm
[9] = tested on: Plasmopara viticola; test: Test D: grape downy mildew, spray after inoculation of grape seedlings; type: in vivo
Source text: Upon removal, disease ratings were made. […] A dash (-) indicates no test results.

[10] = tested on: Botrytis cinerea; test: Test E: tomato botrytis, preventive spray on tomato seedlings; conditions: for pest or weed control at 40 ppm: Botrytis cinerea, in Solanum lycopersicum, topical, 72 h, read-out: Test E disease control rating; for Test E disease control rating: 200 ppm, 100 = 100% disease control, 0 = no control
[11] = tested on: Septoria nodorum; test: Test H: wheat glum blotch, preventive spray on wheat seedlings; conditions: for pest or weed control at 40 ppm: Parastagonospora nodorum, in Triticum aestivum, topical, 168 h; for Test H disease control rating: 200 ppm
Experimental: (the causal agent of wheat glum blotch) and incubated in a saturated atmosphere at 20° C. for 48 h, and then moved to a growth chamber at 22° C. for 5 days, after which disease ratings were made.

[12] = tested on: Sclerotinia sclerotiorum; test: Test C: cucumber white mold, preventive spray on cucumber seedlings; conditions: 200 ppm; 100 = 100% disease control, 0 = no control
[13] = Pythium aphanidermatum, 120 h, read-out: Test A disease control rating
[14] = 100 = 100% disease control, 0 = no control
[15] = 200 ppm, 100 = 100% disease control, 0 = no control

## Cc1nc(-n2cccn2)c(=O)n(CC(C)C)c1-c1c(F)cccc1F [Compound 149, 5-Methyl-6-(2,6-difluorophenyl)-1-(2-methylpropyl)-3-(1H-pyrazol-1-yl)-2(1H)-pyrazinone]
[1]
  pest or weed control at 40 ppm: 100%
[2]; [13]
  pest or weed control at 200 ppm: 0%
[3]; Fusarium, in Triticum aestivum, topical, 192 h, read-out: Test I disease control rating, 200 ppm
  pest or weed control at 200 ppm: 0%
[4]; 40 ppm (*)
  pest or weed control at 40 ppm: 100%
[5]; read-out: Test B disease control rating, 40 ppm (*)
  pest or weed control at 40 ppm: 0%
[6]; read-out: Test G disease control rating, 40 ppm (*)
  pest or weed control at 40 ppm: 99%
[7]; Phytophthora infestans, in Solanum lycopersicum, topical, 144 h, read-out: Test F disease control rating
  pest or weed control at 200 ppm: 0%
[8]; read-out: Test L disease control rating, 40 ppm (*)
  pest or weed control at 40 ppm: 100%
[9]; Plasmopara viticola, 168 h, 200 ppm, read-out: Test D disease control rating
  pest or weed control at 200 ppm: 0%
[10]
  pest or weed control at 40 ppm: 100%
[11]; read-out: Test H disease control rating, 40 ppm (*)
  pest or weed control at 40 ppm: 98%
other
  melting point: 105 to 106 °C

## O=c1c(-n2cccn2)nc(Cl)c(-c2c(F)ccc(F)c2F)n1-c1ccccc1 [Compound 357, 5-Chloro-1-phenyl-3-(1H-pyrazol-1-yl)-6-(2,3,6-trifluorophenyl)-2(1H)-pyrazinone]
[1]
  pest or weed control at 40 ppm: 99%
[2]; [13]
  pest or weed control at 40 ppm: 0%
[3]; Fusarium, in Triticum aestivum, topical, 192 h, read-out: Test I disease control rating, 40 ppm (marked *), 100 = 100% disease control, 0 = no control
  pest or weed control at 40 ppm: 91%
[4]; 40 ppm (marked *), 100 = 100% disease control, 0 = no control
  pest or weed control at 40 ppm: 91%
[5]; read-out: Test B disease control rating, 40 ppm (marked *), 100 = 100% disease control, 0 = no control
  pest or weed control at 40 ppm: 83%
[6]; read-out: Test G disease control rating, 40 ppm (marked *), 100 = 100% disease control, 0 = no control
  pest or weed control at 40 ppm: 84%
[8]; read-out: Test L disease control rating, 40 ppm (marked *), 100 = 100% disease control, 0 = no control
  pest or weed control at 40 ppm: 20%
[9]; Plasmopara viticola, 168 h, 40 ppm (marked *), 100 = 100% disease control, 0 = no control, read-out: Test D disease control rating
  pest or weed control at 40 ppm: 0%
[10]
  pest or weed control at 40 ppm: 99%
[11]; read-out: Test H disease control rating, 40 ppm (marked *), 100 = 100% disease control, 0 = no control
  pest or weed control at 40 ppm: 98%
other
  melting point: 250 to 260 °C

## Cc1ccn(-c2nc(Cl)c(C(C)C)n(CC(C)C)c2=O)n1 [compound 289]
[1]
  Test K disease control rating: 100%
[2]
  Test A disease control rating: 0%
[3]; [14]
  Test I disease control rating: 0%
[4]; [14]
  Test J disease control rating: 96%
[5]; [14]
  Test B disease control rating: 0%
[6]; [14]
  Test G disease control rating: 95%
[12]
  Test C disease control rating: 0%
[7]
  Test F disease control rating: 57%
[8]; [14]
  Test L disease control rating: 79%
[9]; [15]
  Test D disease control rating: 0%
[10]
  Test E disease control rating: 100%
[11]; [14]
  Test H disease control rating: 0%

## CC(C)Cn1c(C2CCCC2)c(Cl)nc(-n2cccn2)c1=O [compound 290]
[1]
  Test K disease control rating: 100%
[2]
  Test A disease control rating: 0%
[3]; [14]
  Test I disease control rating: 0%
[4]; [14]
  Test J disease control rating: 100%
[5]; [14]
  Test B disease control rating: 0%
[6]; [14]
  Test G disease control rating: 77%
[12]
  Test C disease control rating: 0%
[7]
  Test F disease control rating: 0%
[8]; [14]
  Test L disease control rating: 99%
[9]; [15]
  Test D disease control rating: 0%
[10]
  Test E disease control rating: 100%
[11]; [14]
  Test H disease control rating: 0%

## CC(C)Cn1c(C2CCCCC2)c(Cl)nc(-n2cccn2)c1=O [compound 291]
[1]
  Test K disease control rating: 88%
[2]
  Test A disease control rating: 0%
[3]; [14]
  Test I disease control rating: 0%
[4]; [14]
  Test J disease control rating: 100%
[5]; [14]
  Test B disease control rating: 0%
[6]; [14]
  Test G disease control rating: 0%
[12]
  Test C disease control rating: 0%
[7]
  Test F disease control rating: 0%
[8]; [14]
  Test L disease control rating: 71%
[9]; [15]
  Test D disease control rating: 33%
[10]
  Test E disease control rating: 97%
[11]; [14]
  Test H disease control rating: 0%

## CC(C)Cc1c(Cl)nc(-n2cccn2)c(=O)n1CC(C)C [compound 292]
[1]
  Test K disease control rating: 27%
[2]
  Test A disease control rating: 0%
[3]; [14]
  Test I disease control rating: 0%
[4]; [14]
  Test J disease control rating: 38%
[5]; [14]
  Test B disease control rating: 0%
[6]; [14]
  Test G disease control rating: 0%
[12]
  Test C disease control rating: 0%
[7]
  Test F disease control rating: 0%
[8]; [14]
  Test L disease control rating: 74%
[9]; [15]
  Test D disease control rating: 0%
[10]
  Test E disease control rating: 0%
[11]; [14]
  Test H disease control rating: 0%

## Cc1ccn(-c2nc(Cl)c(C3CCCC3)n(CC(C)C)c2=O)n1 [compound 293]
[1]
  Test K disease control rating: 88%
[2]
  Test A disease control rating: 0%
[3]; [14]
  Test I disease control rating: 0%
[4]; [14]
  Test J disease control rating: 97%
[5]; [14]
  Test B disease control rating: 0%
[6]; [14]
  Test G disease control rating: 0%
[12]
  Test C disease control rating: 0%
[7]
  Test F disease control rating: 0%
[8]; [14]
  Test L disease control rating: 0%
[9]; [15]
  Test D disease control rating: 0%
[10]
  Test E disease control rating: 95%
[11]; [14]
  Test H disease control rating: 0%

## Cc1ccn(-c2nc(Cl)c(C3CCCCC3)n(CC(C)C)c2=O)n1 [compound 294]
[1]
  Test K disease control rating: 54%
[2]
  Test A disease control rating: 0%
[3]; [14]
  Test I disease control rating: 0%
[4]; [14]
  Test J disease control rating: 95%
[5]; [14]
  Test B disease control rating: 0%
[6]; [14]
  Test G disease control rating: 0%
[12]
  Test C disease control rating: 0%
[7]
  Test F disease control rating: 0%
[8]; [14]
  Test L disease control rating: 0%
[9]; [15]
  Test D disease control rating: 0%
[10]
  Test E disease control rating: 31%
[11]; [14]
  Test H disease control rating: 0%

## Cc1ccn(-c2nc(Cl)c(CC(C)C)n(CC(C)C)c2=O)n1 [compound 295]
[1]
  Test K disease control rating: 27%
[2]
  Test A disease control rating: 0%
[3]; [14]
  Test I disease control rating: 0%
[4]; [14]
  Test J disease control rating: 53%
[5]; [14]
  Test B disease control rating: 0%
[6]; [14]
  Test G disease control rating: 0%
[12]
  Test C disease control rating: 0%
[7]
  Test F disease control rating: 0%
[8]; [14]
  Test L disease control rating: 0%
[9]; [15]
  Test D disease control rating: 0%
[10]
  Test E disease control rating: 0%
[11]; [14]
  Test H disease control rating: 0%

## CCC(C)Cn1c(-c2c(F)cccc2F)c(Cl)nc(C(=O)NC(C)C)c1=O (centres unmarked) [compound 296]
[1]
  Test K disease control rating: 100%
[2]
  Test A disease control rating: 0%
[3]; [14]
  Test I disease control rating: 0%
[4]; [14]
  Test J disease control rating: 100%
[5]; [14]
  Test B disease control rating: 93%
[6]; [14]
  Test G disease control rating: 0%
[12]
  Test C disease control rating: 85%
[7]
  Test F disease control rating: 0%
[8]; [14]
  Test L disease control rating: 93%
[9]; [15]
  Test D disease control rating: 53%
[10]
  Test E disease control rating: 100%
[11]; [14]
  Test H disease control rating: 100%

## CCC(C)Cn1c(-c2c(F)cccc2F)c(Cl)nc(C(=O)NCC2CC2)c1=O (centres unmarked) [compound 300]
[1]
  Test K disease control rating: 100%
[2]
  Test A disease control rating: 0%
[3]; [14]
  Test I disease control rating: 0%
[4]; [14]
  Test J disease control rating: 100%
[5]; [14]
  Test B disease control rating: 93%
[6]; [14]
  Test G disease control rating: 16%
[12]
  Test C disease control rating: 0%
[7]
  Test F disease control rating: 0%
[8]; [14]
  Test L disease control rating: 97%
[9]; [15]
  Test D disease control rating: 40%
[10]
  Test E disease control rating: 100%
[11]; [14]
  Test H disease control rating: 99%

## CCC(C)CNC(=O)c1nc(Cl)c(-c2c(F)cccc2F)n(CC(C)CC)c1=O (centres unmarked) [compound 301]
[1]
  Test K disease control rating: 99%
[2]
  Test A disease control rating: 0%
[3]; [14]
  Test I disease control rating: 0%
[4]; [14]
  Test J disease control rating: 98%
[5]; [14]
  Test B disease control rating: 0%
[6]; [14]
  Test G disease control rating: 0%
[12]
  Test C disease control rating: 0%
[7]
  Test F disease control rating: 0%
[8]; [14]
  Test L disease control rating: 68%
[9]; [15]
  Test D disease control rating: 0%
[10]
  Test E disease control rating: 100%
[11]; [14]
  Test H disease control rating: 87%
